In this experiment the test system is male Sprague-Dawley rats. The experiment in a line: Reversal of amphetamine-induced hyperlocomotion. Type of experiment: in vivo, rat. The following applies: oral gavage, doses per FIG. 4; amphetamine 1 mg/kg sc. The protocol: Locomotor activity was assessed as mean distance traveled (cm) in standard 16×16 photocell testing chambers measuring 43.2 cm (Length)×43.2 cm (Width)×30.5 cm (Height) (Med Associates, St. Albans, Vt.). Animals were habituated to individual activity chambers for at least 30 min prior to drug administration. Following administration of drug or vehicle, activity was recorded for a 90 minute time period. Data was expressed as the mean (±SEM) distance traveled recorded in 5 min intervals over the test period. The data was analyzed using repeated measures analysis of variance (ANOVA) followed by post-hoc testing using Dunnett's test, when appropriate. A difference was considered significant when p≦0.05. […]
The animals were habituated in Smart Open Field locomotor activity test chambers (Hamilton-Kinder, San Diego, Calif.) with 16×16 photobeams to automatically record locomotor activity for 30 min and then dosed with vehicle or test compound. […] At 60 min, all rats were injected subcutaneously with 1 mg/kg amphetamine or vehicle and then monitored for an additional 60 min. Animals are monitored for a total of 120 minutes. Data are expressed as changes in ambulation defined as total number of beam breaks per 5 min periods.
The data for the dose-response studies were analyzed by a between-group analysis of variance. […]

For the compound `O=C1c2cc(COc3ccccc3)nn2CCN1c1ccc(F)cn1`, the “reversal of amphetamine-induced hyperlocomotion” value was “reversal of amphetamine-induced hyperlocomotion”.

The values are drawn from patent US8592422B2, “Bicyclic triazole and pyrazole lactams as allosteric modulators of mGluR5 receptors” (Vanderbilt University, priority 2010, dated 2013).
